Consider two compounds from patent publication US9938258B2 (Karyopharm Therapeutics Inc., priority 2012, dated 2018).

Counter-ions that a name gives are not always drawn. Like-named read-outs stand apart in the source and are kept apart here.

In test [1] the test system is PAK4 interactors and downstream proteins. Description: Immunoblots of PAK4 interactors and downstream proteins in U2OS cells. It counts as cell-based, human. The settings on record: 72 hours. How it is done:
Immunoblots were used to measure the effects of exemplary compounds on protein steady-state levels and phophorylation of PAK4 interactor and downstream proteins. Specifically, U2OS (osteosarcoma) cells were split and plated on day 1. After overnight attachment to the tissue culture plate, cells were treated with either DMSO (0), 37 nM, 111 nM, 333 nM, 1 μM, or 3 μM Compound 246 for 72 hours. Cells were collected, washed and lysed in RIPA buffer. After obtaining the protein concentration by BCA assay, lysates were boiled in loading buffer and run on SDS-PAGE. The gels were transferred to nitrocellulose membranes and blotted with antibodies raised against phosphor-PAK4, PAK4, phophos-beta-catenin, beta-catenin, GEF-H1, phospho-Akt, Akt, phospho-ERK1/2, ERK1/2, phospho-cofilin, cofilin, phospho-histone H3, histone H3, cyclin D1, Mcl-1, Bcl-2, p21, survivin, caspase 8, caspase 3, PARP, and beta-actin (loading control).
In another experiment, U2OS (osteosarcoma) cells were split and plated on day 1. After overnight attachment to the tissue culture plate, cells were treated with DMSO (Ct), 0.5 μM, or 5 μM of Compound 124, 369, 226, 246, or 907 for 72 hours. Cells were collected, washed and lysed in RIPA buffer. After obtaining the protein concentration by BCA assay, lysates were boiled in loading buffer and run on SDS-PAGE. The gels were transferred to nitrocellulose membranes and blotted with antibodies raised against phophos-beta-catenin, cyclin D1, PAK4, phospho-cofilin, and beta-actin (loading control).
For orientation: In western blotting, separated proteins are transferred to a membrane and probed.

The next test deals with MS751 cells. Description: MTT cell proliferation assay, MS751. It counts as cell-based, human. The settings on record: Homo sapiens. Put shortly: (§1)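 Absorbance at 490 nm of solubilized formazan, produced during roughly 4 h MTT incubation, gave percent inhibition relative to negative control. Compounds spanned eight concentrations between 1 nM and 30 μM on cells plated overnight at 5,000-10,000 per well.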
On the technique in general: Tetrazolium assays rely on reduction of a dye to a coloured formazan, in cell work by metabolically active cells.

A further test has as its system Hep G2 cells. Briefly: MTT cell proliferation assay, Hep G2. The conditions noted are these: Homo sapiens, HepG2, incubation approximately 64-72 hours. The format is cell-based. How it is done:
(§2) The MTT cell proliferation assay was used to study the cytotoxic properties of the compounds. The assay was performed according to the method described by Roche Molecular Biochemicals, with minor modifications. The assay is based on the cleavage of the tetrazolium salt, MTT, in the presence of an electron-coupling reagent. The water-insoluble formazan salt produced must be solubilized in an additional step. Cells grown in a 96-well tissue culture plate were incubated with the MTT solution for approximately 4 hours. After this incubation period, a water-insoluble formazan dye formed. After solubilization, the formazan dye was quantitated using a scanning multi-well spectrophotometer (ELISA reader). […] The cells were seeded at 5,000-10,000 cells in each well of 96-well plate in 100 μL of fresh culture medium and were allowed to attach overnight. The stock solutions of the compounds were diluted in 100 μL cell culture medium to obtain eight concentrations of each test compound, ranging from 1 nM to 30 μM. […] All optical densities were measured at 490 nm using a Vmax Kinetic Microplate Reader (Molecular Devices). In most cases, the assay was performed in duplicate and the results were presented as a mean percent inhibition to the negative control±SE. The following formula was used to calculate the percent of inhibition: Inhibition (%)=(1-(ODo/OD)) ×100.
The M24 cell line is derived from human melanoma cells. The U2OS cell line is a human osteosarcoma cell line expressing wild type p53 and Rb, but lacking p16. The MM1S cell line is a multiple myeloma cell line; the parent cell line, MM.1, was established from peripheral blood of a multiple myeloma patient who had become resistant to steroid-based therapy. The RPMI8226 cell line is derived from human B lymphocyte cells. NHDF cells are normal human dermal fibroblast cells. The MRC-5 cell line is derived from normal lung tissue of a fetus. The LN18 cell line is a human malignant glioma cell line. The DU-145 cell line is a human prostate cancer cell line. A549 cells are human adenocarcinomic human alveolar basal epithelial cells. The MOLT4 cell line is a human acute lymphoblastic leukemia cell line. The THP1 cell line is a human leukemic monocytic cell line derived from peripheral blood. The OCIAML5 cell line is a human acute myeloid leukemia cell line. The MDA-MB-231 cell line is a human breast adenocarcinoma cell line. The MDA-MB-468 cell line is a human breast carcinoma cell line. HL-60 cells are human promyelocytic leukemia cells. Hep G2 cells are human hepatocellular carcinoma cells. HEP 3B cells are human hepatocellular carcinoma cells. The DLD-1 cell line is a colorectal adenocarcinoma cell line. The HCT-15 cell line is a human colon carcinoma cell line. The Colo-205 cell line is derived from a human adenocarcinoma of the colon. […]

Another test relates to Z138 cells. Description: MTT cell proliferation assay, Z138. The format is cell-based. The conditions noted are these: Homo sapiens. In outline:
as §1

A further test has as its system SNU-182 cell line. Briefly: MTT cell proliferation assay, SNU-182. It counts as cell-based. The settings on record: Homo sapiens, incubation approximately 64-72 hours. The protocol:
as §2, with “×100. […]” for “×100.”

A further test relates to HEP 3B cells. Description: MTT cell proliferation assay, HEP 3B. It counts as cell-based. The settings on record: Homo sapiens, Hep3B, incubation approximately 64-72 hours. The protocol: as §2
(§3) The M24 cell line is derived from human melanoma cells. The U2OS cell line is a human osteosarcoma cell line expressing wild type p53 and Rb, but lacking p16. The MM1S cell line is a multiple myeloma cell line; the parent cell line, MM.1, was established from peripheral blood of a multiple myeloma patient who had become resistant to steroid-based therapy. The RPMI8226 cell line is derived from human B lymphocyte cells. NHDF cells are normal human dermal fibroblast cells. The MRC-5 cell line is derived from normal lung tissue of a fetus. The LN18 cell line is a human malignant glioma cell line. The DU-145 cell line is a human prostate cancer cell line. A549 cells are human adenocarcinomic human alveolar basal epithelial cells. […]

In a further test the test system is 3T3 cells. Briefly: MTT cell proliferation assay, 3T3. It counts as cell-based, mouse. The conditions noted are these: Mus musculus. In outline: as §1
The test system of another test is UCH-2 cell line. Briefly: MTT cell proliferation assay, UCH-2. The conditions noted are these: UCH2, incubation approximately 64-72 hours. It counts as cell-based. The protocol: as §2, with “×100. […]” for “×100.”
Another test relates to MM1S cell line. Description: MTT cell proliferation assay, MM1S. The format is cell-based. The conditions noted are these: Homo sapiens, MM1.S, incubation approximately 64-72 hours. The protocol: as §2, §3
The test system of the next test is M24 cell line. Briefly: MTT cell proliferation assay, M24. It counts as cell-based. The settings on record: Homo sapiens, incubation approximately 64-72 hours. How it is done:
as §2, with “×100. […]” for “×100.”

A further test has as its system NHDF cells. Description: MTT cell proliferation assay, NHDF. It counts as cell-based. The settings on record: Homo sapiens, incubation approximately 64-72 hours. The protocol: as §2, with “×100. […]” for “×100.”
The test system of a further test is HL-60 cells. Briefly: MTT cell proliferation assay, HL-60. The conditions noted are these: Homo sapiens, incubation approximately 64-72 hours. It counts as cell-based. How it is done:
as §2, with “×100. […]” for “×100.”

The next test has as its system RPMI8226 cell line. Briefly: MTT cell proliferation assay, RPMI8226. It counts as cell-based. The settings on record: Homo sapiens, RPMI-8226, incubation approximately 64-72 hours. How it is done:
as §2, with “×100. […]” for “×100.”

A further test relates to U2OS cell line. Description: MTT cell proliferation assay, U2OS. It counts as cell-based. The conditions noted are these: Homo sapiens, incubation approximately 64-72 hours. How it is done: as §2, with “×100. […]” for “×100.”

What is called IC50 is the midpoint of a concentration-inhibition curve. Take `Nc1ccc(/C=C/C(=O)NCC2Cc3cc(-c4ccc(C(=O)N5CC(F)(F)C5)cc4)cc(Cl)c3O2)cn1` (stereo not shown) [Compound 226, (E)-3-(6-aminopyridin-3-yl)-N-((7-chloro-5-(4-(3,3-difluoroazetidine-1-carbonyl)phenyl)-2,3-dihydrobenzofuran-2-yl)methyl)acrylamide]: in [1] (0.5 μM or 5 μM), the PAK4 total protein entry is recorded as “decrease”. Also, the “phosphorylation of PAK4 signaling proteins beta-catenin and cofilin” value in test [1] (0.5 μM or 5 μM) is reported as “decreases in phosphorylation”. Further, the half-inhibitory concentration (IC50) in the test on MS751 cells (MS751, MS751 cells, approximately 64-72 hours incubation, read-out: MTT Assay IC50, MS751) was under 100 nM; in the test on Hep G2 cells, under 100 nM; in the test on Z138 cells (Z-138, Z138 cells, approximately 64-72 hours incubation, read-out: MTT Assay IC50, Z138), under 100 nM; with SNU-182 cell line, under 100 nM; in the test with HEP 3B cells it was under 100 nM; in the test on 3T3 cells (NIH3T3, 3T3 cells, approximately 64-72 hours incubation, read-out: MTT Assay IC50, 3T3) it was 5000 to 30000 nM. In the test on UCH-2 cell line, this compound returned an IC50 of over 30000 nM.
In the case of `Nc1ccc(/C=C/C(=O)NCC2Cc3cc(-c4ccc(C(=O)N5CCNCC5)cc4)cc(Cl)c3O2)cn1` (stereo not shown) [Compound 246, (E)-3-(6-aminopyridin-3-yl)-N-((7-chloro-5-(4-(piperazine-1-carbonyl)phenyl)-2,3-dihydrobenzofuran-2-yl)methyl)acrylamide dihydrochloride], the PAK4 total protein result in [1] (37 nM to 3 μM) and in test [1] (0.5 μM or 5 μM) was “decrease” each time. Further, the “cleavage of apoptosis markers caspase 3, caspase 8 and PARP” value in test [1] (37 nM to 3 μM) is “increases in cleavage”. Further, the “phosphorylation or total level of PAK4 signaling proteins (Akt, ERK1/2, beta-catenin, cofilin, p21, cyclin D1)” value in test [1] (37 nM to 3 μM) is “decrease in phosphorylation or the total level”. Moreover, the “phosphorylation of PAK4 signaling proteins beta-catenin and cofilin” value in test [1] (0.5 μM or 5 μM) is on record as “decreases in phosphorylation”. The IC50 in the test with MS751 cells (MS751, read-out: MTT Assay IC50, MS751) is under 100 nM; with MM1S cell line it was under 100 nM; in the test on Hep G2 cells, 100 to 5000 nM; with Z138 cells (Z-138, read-out: MTT Assay IC50, Z138) it was under 100 nM; with M24 cell line, 100 to 5000 nM; in the test on HEP 3B cells it was under 100 nM. In addition, the half-maximal inhibitory concentration (IC50) in the test with 3T3 cells (NIH3T3, read-out: MTT Assay IC50, 3T3) was 100 to 5000 nM; with NHDF cells it was 100 to 5000 nM; in the test on HL-60 cells it was 100 to 5000 nM; in the test on RPMI8226 cell line, 100 to 5000 nM; with U2OS cell line, under 100 nM.
